Measured values: patent US7858635B2 (priority 2005, dated 2010)
Where two headings read alike, the source gives them in different places.

Tests used:
M4 muscarinic receptor = biological target: T1, M4 muscarinic receptor (Homo sapiens, UniProt P08173); assay: Functional mobilization of intracellular calcium (FLIPR, Fluo-3), M4-CHO cells; format: cell-based; settings: for Emax: 100% efficacy is the maximum response obtained with the Carbachol control, read-out: M4 Efficacy
T1 construct: expressed in transfected cells; host or cells: CHO cells (M4-CHO, under puromycin, zeocin and blasticidin selection)
T1 sequence (P08173 1-479): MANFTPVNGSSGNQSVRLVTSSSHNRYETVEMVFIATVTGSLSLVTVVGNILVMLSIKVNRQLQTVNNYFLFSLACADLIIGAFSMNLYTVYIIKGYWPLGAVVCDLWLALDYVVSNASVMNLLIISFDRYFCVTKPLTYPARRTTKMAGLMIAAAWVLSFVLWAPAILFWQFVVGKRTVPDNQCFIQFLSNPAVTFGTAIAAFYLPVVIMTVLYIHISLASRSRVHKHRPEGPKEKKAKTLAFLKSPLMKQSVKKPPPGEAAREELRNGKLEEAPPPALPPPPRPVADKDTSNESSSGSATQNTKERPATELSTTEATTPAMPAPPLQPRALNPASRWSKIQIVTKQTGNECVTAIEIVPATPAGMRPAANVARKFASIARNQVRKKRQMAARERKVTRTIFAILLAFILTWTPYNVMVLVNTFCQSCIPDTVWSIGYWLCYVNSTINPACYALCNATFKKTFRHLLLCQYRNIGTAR
Procedure, shortened: (§1)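 Fluo-3 read-out, ex 488/em 540 nm, 60 sec on FLIPR 3. For agonist mode, compound added directly; for inhibition, 15 min compound pre-incubation before carbachol at EC80 (added as a 3× solution), or co-application. Buffer pH 7.4 with 1 mM probenecid; DMSO 0.5%.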

M1 muscarinic receptor = biological target: T2, M1 muscarinic receptor (Homo sapiens, UniProt P11229); assay: Functional mobilization of intracellular calcium (FLIPR, Fluo-3), M1-CHO cells; format: cell-based; settings: for Emax: 100% efficacy is the maximum response obtained with the Carbachol control, read-out: M1 Efficacy
T2 construct: expressed in transfected cells; host or cells: CHO cells (M1-CHO, under zeocin and G418 selection)
T2 sequence (P11229 1-460): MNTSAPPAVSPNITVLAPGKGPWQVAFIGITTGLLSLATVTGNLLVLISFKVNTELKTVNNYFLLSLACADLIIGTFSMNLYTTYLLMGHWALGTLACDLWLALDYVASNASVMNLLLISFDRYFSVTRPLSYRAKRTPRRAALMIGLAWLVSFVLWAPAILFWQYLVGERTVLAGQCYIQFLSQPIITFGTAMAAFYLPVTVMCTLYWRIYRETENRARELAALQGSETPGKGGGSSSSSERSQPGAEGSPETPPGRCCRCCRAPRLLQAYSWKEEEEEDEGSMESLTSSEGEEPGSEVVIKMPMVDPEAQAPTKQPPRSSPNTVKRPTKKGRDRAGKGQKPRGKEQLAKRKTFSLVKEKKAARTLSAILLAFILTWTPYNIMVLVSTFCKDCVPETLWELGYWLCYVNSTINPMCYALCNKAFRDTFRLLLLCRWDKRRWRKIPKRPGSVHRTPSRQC
Procedure, shortened: as §1

[1] = compound nos. 1-454, M4-CHO cells, calcium mobilization
[2] = compound nos. 1-454, M1-CHO cells, calcium mobilization

Structure (SMILES) | Emax (M4 muscarinic receptor; compound nos. 1-454) | M4 Activity (M4 muscarinic receptor; [1]) | Emax (M1 muscarinic receptor; compound nos. 1-454) | M1 Activity (M1 muscarinic receptor; [2]) | Emax (M4 muscarinic receptor; compound nos. 455-509) | M4 Activity (M4 muscarinic receptor; compounds 455-509) | Emax (M1 muscarinic receptor; compound nos. 455-509) | M1 Activity (M1 muscarinic receptor; compounds 455-509) | M4 Activity (M4 muscarinic receptor; compound nos. 1-454) | M1 Activity (M1 muscarinic receptor; compound nos. 1-454)
CCOC(=O)N1C2CCC1CC(N1CCC3(CC1)CN(C(=O)N(C)C)c1ccc(F)cc13)C2 (stereo not drawn) [compound 362] | < 55% | + (activity was measured to be greater than or equal to 4.0 μM) | 65 to 85% | ++ (activity was measured to be between 0.7 μM and 3.0 μM) |  |  |  |  |  | 
CC(C)OC(=O)N1C2CCC1CC(N1CCC3(CC1)CN(S(C)(=O)=O)c1ccc(F)cc13)C2 (stereo not drawn) [compound 170] | > 70% | + (activity was measured to be greater than or equal to 4.0 μM) | 65 to 85% | ++ (activity was measured to be between 0.7 μM and 3.0 μM) |  |  |  |  |  | 
CCCc1ccc2c(c1)C1(CCN(C3CCN(C(=O)OCC)CC3)CC1)CN2C(C)=O [compound 74] | 55 to 70% | ++ (activity was measured to be between 0.1 μM and 4.0 μM) | 65 to 85% | +++ (activity was measured to be less than or equal to 0.7 μM) |  |  |  |  |  | 
CC(=O)N1CCC2(CCN(C3CCN(c4cnccn4)CC3)CC2)c2ccccc21 [compound 463] |  |  |  |  | 25 to 100% | ++ (activity was measured to be between 2.0 μM and 5.0 μM) | > 100% | +++ (activity was measured to be less than or equal to 2.0 μM) |  | 
CC(=O)N1CC2(CCN(C3CCN(C(=O)O[C@@H]4CCOC4)CC3)CC2)c2cc(F)ccc21 [compound 424] | < 55% |  | < 65% |  |  |  |  |  | + (activity was measured to be greater than or equal to 4.0 μM) | + (activity was measured to be greater than or equal to 3.0 μM)
CN(C)C(=O)N1CC2(CCN(C3CCN(c4cnc5ccccc5n4)CC3)CC2)c2ccccc21 [compound 497] |  |  |  |  | 25 to 100% | ++ (activity was measured to be between 2.0 μM and 5.0 μM) | > 100% | +++ (activity was measured to be less than or equal to 2.0 μM) |  | 
CC(C)OC(=O)N1C2CCC1CC(N1CCC3(CC1)CN(C(=O)O[C@@H]1CCOC1)c1ccc(F)cc13)C2 (stereo partly drawn) [compound 361] | < 55% | + (activity was measured to be greater than or equal to 4.0 μM) | < 65% | ++ (activity was measured to be between 0.7 μM and 3.0 μM) |  |  |  |  |  | 
Fc1ccc2c(c1)C1(CCN(C3CCCCC3)CC1)CO2 [compound 152] | > 70% | + (activity was measured to be greater than or equal to 4.0 μM) | 65 to 85% | ++ (activity was measured to be between 0.7 μM and 3.0 μM) |  |  |  |  |  | 
CCCOC(=O)N1C2CCC1CC(N1CCC3(CC1)CN(C(=O)OC1CCC1)c1ccc(F)cc13)C2 (stereo not drawn) [compound 329] | < 55% | + (activity was measured to be greater than or equal to 4.0 μM) | 65 to 85% | +++ (activity was measured to be less than or equal to 0.7 μM) |  |  |  |  |  | 
CC(=O)N[C@H]1CC2(CCN(CC3CCN(C(=O)OC(C)C)CC3)CC2)c2ccccc21 [compound 399] | < 55% |  | 65 to 85% |  |  |  |  |  | ++ (activity was measured to be between 0.1 μM and 4.0 μM) | ++ (activity was measured to be between 0.7 μM and 3.0 μM)
CC(=O)N[C@H]1CC2(CCN(C3CCC[C@@H](C)C3)CC2)c2ccccc21 (stereo partly drawn) [compound 358] | 55 to 70% | ++ (activity was measured to be between 0.1 μM and 4.0 μM) | 65 to 85% | +++ (activity was measured to be less than or equal to 0.7 μM) |  |  |  |  |  | 
Cc1ccc2c(c1)C1(CCN(C3CC4CCC3C4)CC1)CN2S(C)(=O)=O (stereo not drawn) [compound 232] | > 70% | +++ (activity was measured to be less than or equal to 0.1 μM) | < 65% | ++ (activity was measured to be between 0.7 μM and 3.0 μM) |  |  |  |  |  | 
CC(=O)N1CC2(CCN(C3CC[C@@H]4CC[C@@H]3C4)CC2)c2cc(F)ccc21 (stereo partly drawn) [compound 251] | 55 to 70% | + (activity was measured to be greater than or equal to 4.0 μM) | 65 to 85% | ++ (activity was measured to be between 0.7 μM and 3.0 μM) |  |  |  |  |  | 
CC(=O)N1CC2(CCN(C3CCCCC3C)CC2)c2cc(F)ccc21 (stereo not drawn) [compound 52] | 55 to 70% | +++ (activity was measured to be less than or equal to 0.1 μM) | > 85% | +++ (activity was measured to be less than or equal to 0.7 μM) |  |  |  |  |  | 
CC(=O)N1CC2(CCN(C3CCN(C(=O)O[C@H]4CCOC4)CC3)CC2)c2cc(C)ccc21 [compound 398] | < 55% |  | < 65% |  |  |  |  |  | + (activity was measured to be greater than or equal to 4.0 μM) | ++ (activity was measured to be between 0.7 μM and 3.0 μM)
CCOC(=O)N1CCC(CN2CCC3(CC2)C(=O)N(C)c2ccccc23)CC1 [compound 327] | < 55% | + (activity was measured to be greater than or equal to 4.0 μM) | < 65% | + (activity was measured to be greater than or equal to 3.0 μM) |  |  |  |  |  | 
CCc1nsc(N2CCC(N3CCC4(CC3)C[C@H](N(CCOC)C(C)=O)c3ccccc34)CC2)n1 [compound 505] |  |  |  |  | 25 to 100% | ++ (activity was measured to be between 2.0 μM and 5.0 μM) | > 100% | +++ (activity was measured to be less than or equal to 2.0 μM) |  | 
CCOC(=O)N1CCC(N2CCC3(CC2)CN(C(=O)C(C)C)c2ccc(F)cc23)CC1 [compound 142] | > 70% | + (activity was measured to be greater than or equal to 4.0 μM) | 65 to 85% | +++ (activity was measured to be less than or equal to 0.7 μM) |  |  |  |  |  | 
CCOC(=O)N1C2CCC1CC(N1CCC3(CC1)CN(C(=O)c1snnc1C)c1ccc(F)cc13)C2 (stereo not drawn) [compound 59] | 55 to 70% | ++ (activity was measured to be between 0.1 μM and 4.0 μM) | < 65% | +++ (activity was measured to be less than or equal to 0.7 μM) |  |  |  |  |  | 
COC(=O)N1CC2(CCN(C3CC4CCC(C3)N4C(=O)O[C@@H]3CCOC3)CC2)c2cc(F)ccc21 (stereo partly drawn) [compound 192] | 55 to 70% | + (activity was measured to be greater than or equal to 4.0 μM) | 65 to 85% | +++ (activity was measured to be less than or equal to 0.7 μM) |  |  |  |  |  | 
CCNC(=O)N1CC2(CCN(C3CC4CCC3C4)CC2)c2cc(C)ccc21 (stereo not drawn) [compound 400] | < 55% |  | < 65% |  |  |  |  |  | + (activity was measured to be greater than or equal to 4.0 μM) | + (activity was measured to be greater than or equal to 3.0 μM)
